# Test results as given in US20230287003A1, “BCL6 INHIBITORS” (Cancer Research Technology Limited, priority 2018, published 2023).
# Molecular target: human BCL6 BTB domain (Trx-6×His-BCL6) / BCOR-AF633 peptide (Homo sapiens (Human), UniProt P41182)
# Experiment: HTRF assay
# Assay type: binding
# Settings: 1 nM Trx-6×His-BCL6, 300 nM BCOR-AF633 peptide, 2 hours incubation
row,HTRF avg pIC50 (1 nM),Molecule
1,8.46,"C[C@H]1CN(c2ncc(Cl)c(Nc3ccc4c(c3)c3c(c(=O)n4C)OCC(F)(F)[C@H](C4CC4)N3)n2)CCO1 [Example 12t, (S)-10-((5-chloro-2-((S)-2-methylmorpholino)pyrimidin-4-yl)amino)-2-cyclopropyl-3,3-difluoro-7-methyl-1,2,3,4-tetrahydro-[1,4]oxazepino[2,3-c]quinolin-6(7H)-one]"
2,7.17,"C[C@@H]1CN(c2ncc(Cl)c(Nc3ccc4c(c3)c3c(c(=O)n4CCO)OCC[C@H](C4CC4)N3)n2)C[C@H](C)C1(F)F [Example 16a, (R)-10-((5-chloro-2-((3S,5R)-4,4-difluoro-3,5-dimethylpiperidin-1-yl)pyrimidin-4-yl)amino)-2-cyclopropyl-7-(2-hydroxyethyl)-1,2,3,4-tetrahydro-[1,4]oxazepino[2,3-c]quinolin-6(7H)-one]"
3,8.70,"C[C@H]1C[C@@H](O)CN(c2ncc(Cl)c(Nc3ccc4c(c3)c3c(c(=O)n4C)OCC(F)(F)[C@H](C4CC4)N3)n2)C1 (single isomer, unassigned) [Example 13d, (S)-10-((5-chloro-2-((3R,5S)-3-hydroxy-5-methylpiperidin-1-yl)pyrimidin-4-yl)amino)-2-cyclopropyl-3,3-difluoro-7-methyl-1,2,3,4-tetrahydro-[1,4]oxazepino[2,3-c]quinolin-6(7H)-one or (S)-10-((5-chloro-2-((3S,5R)-3-hydroxy-5-methylpiperidin-1-yl)pyrimidin-4-yl)amino)-2-cyclopropyl-3,3-difluoro-7-methyl-1,2,3,4-tetrahydro-[1,4]oxazepino[2,3-c]quinolin-6(7H)-one]"
4,8.47,"C[C@@H]1CN(c2ncc(Cl)c(Nc3ccc4c(c3)c3c(c(=O)n4C)OCC(F)(F)[C@H](C4CC4)N3)n2)CCO1 [Example 12s, (S)-10-((5-chloro-2-((R)-2-methylmorpholino)pyrimidin-4-yl)amino)-2-cyclopropyl-3,3-difluoro-7-methyl-1,2,3,4-tetrahydro-[1,4]oxazepino[2,3-c]quinolin-6(7H)-one]"
5,5.70,"Cn1c(=O)c2c(c3cc(Nc4ccnc(Cl)c4C#N)ccc31)NC(C1CCC1)CO2 (stereo not drawn) [Example 1n, 2-chloro-4-((2-cyclobutyl-6-methyl-5-oxo-2,3,5,6-tetrahydro-1H-[1,4]oxazino[2,3-c]quinolin-9-yl)amino)nicotinonitrile]"

# More lines, now with the values behind:
row,Molecule,HTRF avg pIC50 (1 nM)
1,"(R)-10-((5-chloro-2-((R)-4,4-difluoro-3- hydroxypiperidin-1-yl)pyrimidin-4-yl)amino)-2-cyclopropyl-7- methyl-1,2,3,4-tetrahydro-[1,4]oxazepino[2,3-c]quinolin-6(7H)- one or (R)-10-((5-chloro-2((S)-4,4-difluoro-3-hydroxypiperidin-1- yl)pyrimidin-4-yl)amino)-2-cyclopropyl-7-methyl-1,2,3,4- tetrahydro-[1,4]oxazepino[2,3-c]quinolin-6(7H)-one [Example 12y]",7.73
2,"CC1Nc2c(c(=O)n(C)c3ccc(Nc4ccnc(Cl)c4C#N)cc23)OCC12CC2 (stereo not drawn) [Example 1i, 2-chloro-4-((2′,7′-dimethyl-6′-oxo-1′,2′,6′,7′-tetrahydro-4′H-spiro[cyclopropane-1,3^′-[1,4]oxazepino[2,3-c]quinolin]-10^′-yl)amino)nicotinonitrile]",5.97
3,"Cn1c(=O)c2c(c3cc(Nc4nc(N5C6CCC5COC6)ncc4F)ccc31)N[C@@H](C1CC1)C(F)(F)CO2 [Example 13j, (S)-10-((2-(3-oxa-8-azabicyclo[3.2.1]octan-8-yl)-5-fluoropyrimidin-4-yl)amino)-2-cyclopropyl-3,3-difluoro-7-methyl-1,2,3,4-tetrahydro-[1,4]oxazepino[2,3-c]quinolin-6(7H)-one]",8.60
4,"C[C@H]1COC(=O)c2c(c3cc(Nc4ccnc(Cl)c4C#N)ccc3n(C)c2=O)N1 [Example 6a, (S)-2-chloro-4-((2,7-dimethyl-5,6-dioxo-1,2,3,5,6,7-hexahydro-[1,4]oxazepino[6,5-c]quinolin-10-yl)amino)nicotinonitrile]",7.01
